From patent US9708311B2, “Benzimidazole derivatives as EP4 antagonists” (BAYER PHARMA AKTIENGESELLSCHAFT, priority 2012, dated 2017)

The compounds below were run against human EP4 receptor (Homo sapiens (Human), UniProt P35408) (assay: Test for antagonism of the human EP4 receptor signal (cAMP HTRF)). Details: cells expressing hEP4, PGE2 at EC80 (0.4 nM), cAMP TR-FRET; read-out: Antagonism hEP4 IC50.
Assay type: cell-based
Source text: The binding of the agonist prostaglandin E2 (PGE2) to the EP4 subtype of human hPGE2-R (hEP4-R) induces the activation of membrane-bound adenylate cyclases and thus the formation of cAMP. In the presence of the phosphodiesterase inhibitor IBMX, this cAMP accumulates intracellularly and is employed in a competitive detection procedure after cell lysis. In this procedure, it competes with a fluorescence-labelled cAMP (cAMP-d2) for binding to an Eu cryptate-labelled anti-cAMP antibody. In the absence of cellular cAMP, a complex is formed between the Eu cryptate-labelled anti-cAMP antibody and the cAMP-d2 molecule, which after excitation at 337 nm makes possible an energy transfer based on FRET (fluorescence resonance energy transfer) to the cAMP-d2 tracer and leads to a long-lasting fluorescence signal (emission at 665 and 620 nm). This signal is time-resolved, i.e. measured in a suitable measuring apparatus after decay of the background fluorescence (time resolved; TR-FRET). The wave ratio determination (emission 665 nm/emission 620 nm*10000) moreover makes it possible to standardize individual measurement differences in the added amounts of the detection reagents.
By means of prostaglandin E2 administration and increase in the intracellular cAMP, a lowering of the FRET signal occurs, which in the case of an antagonistic substance action increases again.
A further 20 min at room temperature later, the cell lysate is measured according to the manufacturer's instructions in a TR-FRET-suitable measuring apparatus (compare cAMP HTRF assay kit: Cisbio International 62AM6PEJ high range)

Sequence of human EP4 receptor (P35408 whole entry): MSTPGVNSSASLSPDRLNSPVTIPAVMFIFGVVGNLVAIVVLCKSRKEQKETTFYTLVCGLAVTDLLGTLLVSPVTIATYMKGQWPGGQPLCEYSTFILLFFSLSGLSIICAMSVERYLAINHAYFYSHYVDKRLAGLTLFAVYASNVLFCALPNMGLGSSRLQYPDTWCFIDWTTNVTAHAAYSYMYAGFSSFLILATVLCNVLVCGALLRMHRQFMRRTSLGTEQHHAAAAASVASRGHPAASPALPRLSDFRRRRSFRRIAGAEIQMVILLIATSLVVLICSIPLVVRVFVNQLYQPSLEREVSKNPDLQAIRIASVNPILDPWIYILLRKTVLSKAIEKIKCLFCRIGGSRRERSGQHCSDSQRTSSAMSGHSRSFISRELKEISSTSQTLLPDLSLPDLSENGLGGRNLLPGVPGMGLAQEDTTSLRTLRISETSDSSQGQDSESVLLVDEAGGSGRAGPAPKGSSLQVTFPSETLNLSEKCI

| Structure (SMILES) | IC50 [µM] |
| --- | --- |
| C=CCn1c(-c2ccc3c(c2)c2ccccc2n3CC)nc2cc(C(=O)OC)ccc21 [Example 1, Methyl 1-allyl-2-(9-ethyl-9H-carbazol-3-yl)-1H-benzimidazole-5-carboxylate] | 3.1 |
| C=CCn1c(-c2ccc3c(c2)c2ccccc2n3CC)nc2cc(C(=O)O)ccc21 [Example 2, 1-Allyl-2-(9-ethyl-9H-carbazol-3-yl)-1H-benzimidazole-5-carboxylic acid] | 0.312 |
| CCn1c2ccccc2c2cc(-c3nc4cc(C(=O)OC)ccc4n3CCOC)ccc21 [Example 3, Methyl 2-(9-ethyl-9H-carbazol-3-yl)-1-(2-methoxyethyl)-1H-benzimidazole-5-carboxylate] | 0.175 |
| CCn1c2ccccc2c2cc(-c3nc4cc(C(=O)OC)ccc4n3CC3CC3)ccc21 [Example 5, Methyl 1-(cyclopropylmethyl)-2-(9-ethyl-9H-carbazol-3-yl)-1H-benzimidazole-5-carboxylate] | 0.404 |
| CCn1c2ccccc2c2cc(-c3nc4c(Cl)c(C(=O)OC)ccc4n3CC3CC3)ccc21 [Example 7, Methyl 4-chloro-1-(cyclopropylmethyl)-2-(9-ethyl-9H-carbazol-3-yl)-1H-benzimidazole-5-carboxylate] | 1.43 |
| CCn1c2ccccc2c2cc(-c3nc4c(C)c(C(=O)O)ccc4n3CC3CC3)ccc21 [Example 9, 1-(Cyclopropylmethyl)-2-(9-ethyl-9H-carbazol-3-yl)-4-methyl-1H-benzimidazole-5-carboxylic acid] | 0.0712 |
| CCn1c2ccccc2c2cc(-c3nc4cc(C(=O)NS(=O)(=O)CCc5ccc(C(F)(F)F)cc5)ccc4n3CCOC)ccc21 [Example 20, 2-(9-Ethyl-9H-carbazol-3-yl)-1-(2-methoxyethyl)-N-({2-[4-(trifluoromethyl)phenyl]ethyl}-sulphonyl)-1H-benzimidazole-5-carboxamide] | 0.683 |
| CCn1c2ccccc2c2cc(-c3nc4cc(C(=O)NCCOC)ccc4n3CC3CC3)ccc21 [Example 21, 1-(Cyclopropylmethyl)-2-(9-ethyl-9H-carbazol-3-yl)-N-(2-methoxyethyl)-1H-benzimidazole-5-carboxamide] | 0.103 |
| CCn1c2ccccc2c2cc(-c3nc4cc(C(=O)N5CCCC5)ccc4n3CC3CC3)ccc21 [Example 22, [1-(Cyclopropylmethyl)-2-(9-ethyl-9H-carbazol-3-yl)-1H-benzimidazol-5-yl](pyrrolidin-1-yl)methanone] | 0.0657 |
| CCn1c2ccccc2c2cc(-c3nc4cc(C(=O)N5CC(O)C5)ccc4n3CC3CC3)ccc21 [Example 23, [1-(Cyclopropylmethyl)-2-(9-ethyl-9H-carbazol-3-yl)-1H-benzimidazol-5-yl](3-hydroxyazetidin-1-yl)methanone] | 0.143 |
| CCn1c2ccccc2c2cc(-c3nc4cc(C(=O)NC)ccc4n3CC3CC3)ccc21 [Example 24, 1-(Cyclopropylmethyl)-2-(9-ethyl-9H-carbazol-3-yl)-N-methyl-1H-benzimidazole-5-carboxamide] | 0.338 |
| CCn1c2ccccc2c2cc(-c3nc4cc(C(=O)N(C)C)ccc4n3CC3CC3)ccc21 [Example 25, 1-(Cyclopropylmethyl)-2-(9-ethyl-9H-carbazol-3-yl)-N,N-dimethyl-1H-benzimidazole-5-carboxamide] | 0.0863 |
| CCn1c2ccccc2c2cc(-c3nc4cc(C(N)=O)ccc4n3CC3CC3)ccc21 [Example 26, 1-(Cyclopropylmethyl)-2-(9-ethyl-9H-carbazol-3-yl)-1H-benzimidazole-5-carboxamide] | 0.176 |
| CCn1c2ccccc2c2cc(-c3nc4cc(C(=O)NCC(F)(F)F)ccc4n3CC3CC3)ccc21 [Example 27, 1-(Cyclopropylmethyl)-2-(9-ethyl-9H-carbazol-3-yl)-N-(2,2,2-trifluoroethyl)-1H-benzimidazole-5-carboxamide] | 0.117 |
| CCn1c2ccccc2c2cc(-c3nc4cc(C(=O)N5CCNC(=O)C5)ccc4n3CC3CC3)ccc21 [Example 28, 4-{[1-(Cyclopropylmethyl)-2-(9-ethyl-9H-carbazol-3-yl)-1H-benzimidazol-5-yl]carbonyl}-piperazin-2-one] | 0.122 |
| CCn1c2ccccc2c2cc(-c3nc4cc(C(=O)N5CCOCC5)ccc4n3CC3CC3)ccc21 [Example 29, [1-(Cyclopropylmethyl)-2-(9-ethyl-9H-carbazol-3-yl)-1H-benzimidazol-5-yl](morpholin-4-yl)methanone] | 0.219 |
| CCn1c2ccccc2c2cc(-c3nc4cc(C(=O)NCCOC)ccc4n3CCOC)ccc21 [Example 31, 2-(9-Ethyl-9H-carbazol-3-yl)-N,1-bis(2-methoxyethyl)-1H-benzimidazole-5-carboxamide] | 0.0428 |
| Cn1c2ccccc2c2cc(-c3nc4cc(C(=O)O)ccc4n3CC3CC3)ccc21 [Example 34, 1-(Cyclopropylmethyl)-2-(9-methyl-9H-carbazol-3-yl)-1H-benzimidazole-5-carboxylic acid] | 0.0394 |
| O=C(O)c1ccc2c(c1)nc(-c1ccc3c(c1)c1ccccc1n3CC1CC1)n2CC1CC1 [Example 35, 1-(Cyclopropylmethyl)-2-[9-(cyclopropylmethyl)-9H-carbazol-3-yl]-1H-benzimidazole-5-carboxylic acid] | 0.0338 |

Further compounds by falling IC50, results first:

| IC50 [µM] | Structure (SMILES) |
| --- | --- |
| 0.0334 | CCn1c2ccccc2c2cc(-c3nc4cc(C(=O)O)ccc4n3CC3CC3)cnc21 [Example 14, 1-(Cyclopropylmethyl)-2-(9-ethyl-9H-pyrido[2,3-b]indol-3-yl)-1H-benzimidazole-5-carboxylic acid] |
| 0.0322 | CCn1c2ccccc2c2cc(-c3nc4cc(C(=O)NS(=O)(=O)c5ccc(OC)cc5)ccc4n3CCOC)ccc21 [Example 19, 2-(9-Ethyl-9H-carbazol-3-yl)-1-(2-methoxyethyl)-N-[(4-methoxyphenyl)sulphonyl]-1H-benzimidazole-5-carboxamide] |
| 0.0301 | CCn1c2ccccc2c2cc(-c3nc4cc(C(=O)N5CCC5)ccc4n3CCOC)ccc21 [Example 30, Azetidin-1-yl[2-(9-ethyl-9H-carbazol-3-yl)-1-(2-methoxyethyl)-1H-benzimidazol-5-yl]methanone] |
| 0.0287 | C=CCn1c2ccccc2c2cc(-c3nc4cc(C(=O)O)ccc4n3CC3CC3)ccc21 [Example 33, 2-(9-Allyl-9H-carbazol-3-yl)-1-(cyclopropylmethyl)-1H-benzimidazole-5-carboxylic acid] |
| 0.0286 | CCn1c2ccccc2c2cc(-c3nc4cc(C(=O)NS(=O)(=O)C5CC5)ccc4n3CCOC)ccc21 [Example 16, N-(Cyclopropylsulphonyl)-2-(9-ethyl-9H-carbazol-3-yl)-1-(2-methoxyethyl)-1H-benzimidazole-5-carboxamide] |
| 0.0274 | CCn1c2ccc(OC)cc2c2cc(-c3nc4cc(C(=O)O)ccc4n3CCOC)ccc21 [Example 32, 2-(9-Ethyl-6-methoxy-9H-carbazol-3-yl)-1-(2-methoxyethyl)-1H-benzimidazole-5-carboxylic acid] |
| 0.0238 | CCn1c2ccccc2c2cc(-c3nc4cc(C(=O)NS(C)(=O)=O)ccc4n3CCOC)ccc21 [Example 15, 2-(9-Ethyl-9H-carbazol-3-yl)-1-(2-methoxyethyl)-N-(methylsulphonyl)-1H-benzimidazole-5-carboxamide] |
| 0.0228 | CCn1c2ccccc2c2cc(-c3nc4cc(C(=O)NS(=O)(=O)CC)ccc4n3CCOC)ccc21 [Example 18, 2-(9-Ethyl-9H-carbazol-3-yl)-N-(ethylsulphonyl)-1-(2-methoxyethyl)-1H-benzimidazole-5-carboxamide] |
| 0.0197 | CCn1c2ccccc2c2cc(-c3nc4c(Cl)c(C(=O)O)ccc4n3CC3CC3)ccc21 [Example 8, 4-Chloro-1-(cyclopropylmethyl)-2-(9-ethyl-9H-carbazol-3-yl)-1H-benzimidazole-5-carboxylic acid] |
| 0.018 | COCCn1c2ccccc2c2cc(-c3nc4cc(C(=O)O)ccc4n3CC3CC3)ccc21 [Example 13, 1-(Cyclopropylmethyl)-2-[9-(2-methoxyethyl)-9H-carbazol-3-yl]-1H-benzimidazole-5-carboxylic acid] |
| 0.0147 | CCn1c2ccccc2c2cc(-c3nc4cc(C(=O)NS(=O)(=O)c5cccc(Cl)c5)ccc4n3CCOC)ccc21 [Example 17, N-[(3-Chlorophenyl)sulphonyl]-2-(9-ethyl-9H-carbazol-3-yl)-1-(2-methoxyethyl)-1H-benzimidazole-5-carboxamide] |
| 0.0144 | CCn1c2ccccc2c2cc(-c3nc4cc(C(=O)O)ccc4n3CC3CC3)ccc21 [Example 6, 1-(Cyclopropylmethyl)-2-(9-ethyl-9H-carbazol-3-yl)-1H-benzimidazole-5-carboxylic acid] |
| 0.0102 | CCn1c2ccc(-c3nc4cc(C(=O)O)ccc4n3CCOC)cc2c2cccc(F)c21 [Example 12, 2-(9-Ethyl-8-fluoro-9H-carbazol-3-yl)-1-(2-methoxyethyl)-1H-benzimidazole-5-carboxylic acid] |
| 0.00636 | CCn1c2ccc(-c3nc4cc(C(=O)O)ccc4n3CCOC)cc2c2c(F)cccc21 [Example 11, 2-(9-Ethyl-5-fluoro-9H-carbazol-3-yl)-1-(2-methoxyethyl)-1H-benzimidazole-5-carboxylic acid] |
